# The source made the active and inactive calls. The calls are words filed in the database; no cut-off is given here.
# What was measured:
# [1] = system: SU.86.86; assay: Induction of DNA damage in human SU8686 cells assessed as increase in gammaH2AX phosphorylation at […] at cytotoxic IC50 incubated for 24 hrs by fluorometry method; type: functional
# [2] = system: SU.86.86; assay: Induction of DNA damage in human SU8686 cells assessed as increase in gammaH2AX nuclear foci under basal condition at IC50 by fluorometry method; type: functional, cell-based
# [3] = system: SU.86.86; assay: Induction of DNA damage in human SU8686 cells assessed as tail DNA formation at IC50 in presence of 5 uM cisplatin by alkaline Comet assay; type: functional, cell-based
# [4] = Drug uptake in human SU8686 cells assessed as increase in doxorubicin uptake by flow cytometry analysis; type: ADME, cell-based; conditions: su.86.86
# [5] = system: SU.86.86; assay: Induction of DNA damage in human SU8686 cells assessed as increase in gammaH2AX phosphorylation at […] at cytotoxic IC50 in presence of 5 uM cisplatin by fluorometry method; type: functional
# [6] = system: SU.86.86; assay: Induction of DNA damage in human SU8686 cells assessed as tail DNA formation at IC50 by alkaline Comet assay; type: functional, cell-based
# [7] = system: SU.86.86; assay: Induction of DNA damage in human SU8686 cells assessed as increase gammaH2AX protein level at IC50 for 24 hrs by western blot analysis; type: functional, cell-based
smiles,measurement,setting,value
CC1=CCC[C@H]2[C@@](C)(CC3=C(O)C(=O)C=C(NCCc4ccccc4)C3=O)[C@@H](C)CC[C@@]12C,Activity,[1],>30%
same,Activity,[2],Active
same,Activity,[3],Active
same,Drug uptake,[4],Active
same,Activity,[5],>20%
same,Activity,[6],Active
same,Activity,[7],Active

# Reference: ChEMBL document CHEMBL4627257, “Targeting the DNA damage response (DDR) by natural compounds” (Bioorg Med Chem, 2020)
